Results as given in ChEMBL document CHEMBL1201862, “PubChem BioAssay data set” (2004).
Several values for one entry are separate records, joined by “and”; a condition that tells them apart may be missing. Equal values may be shown once.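 Five compound concentrations were applied to cells in 96-well plates for 48 hours; endpoints were derived by simple linear interpolation of the resulting dose-response curve. At the GI50, growth is halved.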 Activity calls are given as the source filed them. Rule as the data show it: active = GI50 up to about 1.1 µM and inactive = higher.

How the values were obtained:
Experiment in all cases: inhibition of tumour cell growth, NCI panel, 48 h
[1] = test system: RPMI-8226
[2] = test system: OVCAR-5
[3] = test system: OVCAR-3
[4] = test system: OVCAR-4
[5] = test system: DMS-114
[6] = test system: OVCAR-8
[7] = test system: SNB-78
[8] = test system: SK-MEL-5
[9] = test system: MOLT-4
[10] = test system: HCT-15
[11] = test system: HOP-62
[12] = test system: SF-295
[13] = test system: IGROV-1
[14] = test system: CAKI-1
[15] = test system: HL-60
[16] = test system: SW-620
[17] = test system: NCI-H23
[18] = test system: UACC-62
[19] = test system: 786-0
[20] = test system: SK-MEL-2
[21] = test system: SNB-75
[22] = test system: A549
[23] = test system: DLD-1
[24] = test system: ACHN
[25] = test system: SK-OV-3
[26] = test system: CCRF-CEM
[27] = test system: U-251
[28] = test system: KM12
[29] = test system: M14
[30] = test system: A498
[31] = test system: HT-29
[32] = test system: NCI-H522
[33] = test system: SR
[34] = test system: LXFL 529
[35] = test system: RXF 393
[36] = test system: LOX IMVI
[37] = test system: SK-MEL-28
[38] = test system: HCT-116
[39] = test system: TK-10
[40] = test system: NCI-H460
[41] = test system: DMS-273
[42] = test system: UO-31
[43] = test system: HOP-92
[44] = test system: SF-539
[45] = test system: Malme-3M
[46] = test system: K562
[47] = test system: UACC-257
[48] = test system: KM-20L2
[49] = test system: HCC 2998
[50] = test system: EKVX
[51] = test system: COLO 205
[52] = test system: SN12C
[53] = test system: SNB-19
[54] = test system: NCI-H226
[55] = test system: M19-MEL
[56] = test system: SF-268
[57] = test system: MDA-N
[58] = test system: MDA-MB-435
[59] = test system: MDA-MB-231
[60] = test system: PC-3
[61] = test system: DU-145
[62] = test system: T47D
[63] = test system: MCF7
[64] = test system: Hs-578T
[65] = test system: BT-549
[66] = test system: NCI/ADR-RES

Measured: GI50

CC(C)=CCCC1(C)C=Cc2c(ccc3c2[nH]c2cc(O)c(C)cc23)O1 (stereo not given)
inactive: [1] 6.59 µM | [2] 19.4 µM | [3] 4.75 µM | [4] 7.94 µM | [5] 7.14 µM | [6] 3.81 µM | [7] 13 µM

COc1ccc(C(=O)C2CCC(C(=O)O)C2)cc1 (stereo not given)
inactive: [8] > 100 µM | [9] > 100 µM | [1] > 100 µM | [11] > 100 µM | [12] > 100 µM | [2] > 100 µM | [13] > 100 µM | [14] > 100 µM | [15] > 100 µM | [16] > 100 µM | [17] > 100 µM | [18] > 100 µM | [19] > 100 µM | [20] > 100 µM | [21] > 100 µM | [22] > 100 µM | [23] > 100 µM | [24] > 100 µM | [25] > 100 µM | [26] > 100 µM | [27] > 100 µM | [3] > 100 µM | [28] > 100 µM | [29] > 100 µM | [30] > 100 µM | [31] > 100 µM | [32] > 100 µM | [33] > 100 µM | [34] > 100 µM | [35] > 100 µM | [36] > 100 µM | [37] > 100 µM | [38] > 100 µM | [39] > 100 µM | [40] > 100 µM | [41] > 100 µM | [42] > 100 µM | [43] > 100 µM | [4] > 100 µM | [44] > 100 µM | [45] > 100 µM | [46] > 100 µM | [47] > 100 µM | [48] > 100 µM | [49] > 100 µM | [50] > 100 µM | [51] > 100 µM | [52] > 100 µM | [5] > 100 µM | [6] > 100 µM | [7] > 100 µM | [53] > 100 µM | [54] > 100 µM | [55] > 100 µM
> 100 µM: [10]

C/C=C/C=C/CCCCCCCCCCCCC[C@]1(OC)C=C[C@@H](CC(=O)OC)OO1 [XESTIN A]
inactive: [8] 15.6 µM and 10.1 µM | [1] 7.45 µM and 13.5 µM | [15] 3.59 µM | [18] 14.1 µM and 15.3 µM | [20] 15.5 µM and 25.5 µM | [21] 17.4 µM and 9.64 µM | [25] 28.6 µM and 19.5 µM | [27] 14.7 µM and > 10 µM | [29] 14.8 µM and 17 µM | [33] 2.36 µM | [37] 15.3 µM and 17.5 µM | [38] 16.1 µM and 10.1 µM | [40] 22.4 µM and 15.1 µM | [41] 1.57 µM | [42] 2.77 µM | [43] 1.88 µM | [44] 15.2 µM and 19.7 µM | [45] 26.7 µM and 21.4 µM | [46] 12.2 µM and 20.5 µM | [47] 20.2 µM and 17.4 µM | [56] 17.3 µM and 21.7 µM | [52] 12.9 µM and 21.6 µM | [53] 17.8 µM | [55] 16.9 µM and 11 µM

C[n+]1c(-c2ccc(NC(=O)c3ccc(C(=O)Nc4ccc(-c5cn6ccccc6[n+]5C)cc4)cc3)cc2)cn2ccccc21
inactive: [8] 43.1 µM | [9] > 67.9 µM | [1] 14.3 µM | [11] > 100 µM | [12] 47.5 µM | [2] > 100 µM | [13] > 66.5 µM | [14] > 100 µM | [57] > 69.8 µM | [58] > 67.3 µM | [15] 23.4 µM | [16] > 100 µM | [59] > 42.9 µM | [17] > 100 µM | [18] > 100 µM | [19] 29 µM | [60] > 100 µM | [20] > 100 µM | [21] 60.8 µM | [22] > 100 µM | [24] > 100 µM | [25] > 100 µM | [26] > 65.6 µM | [27] > 73.3 µM | [3] > 100 µM | [28] > 82.6 µM | [29] > 100 µM | [30] 39.1 µM | [61] > 100 µM | [31] > 100 µM | [32] > 100 µM | [33] 18.5 µM | [35] 39.6 µM | [36] > 100 µM | [37] > 100 µM | [38] > 100 µM | [39] > 100 µM | [40] > 100 µM | [42] > 100 µM | [62] > 100 µM | [43] > 100 µM | [4] > 100 µM | [44] > 70.5 µM | [45] 56.5 µM | [46] > 100 µM | [63] > 75 µM | [47] > 100 µM | [64] > 100 µM | [49] > 100 µM | [56] > 100 µM | [65] > 100 µM | [50] > 100 µM | [51] > 56.2 µM | [52] > 66.1 µM | [66] > 100 µM | [6] > 100 µM | [53] > 100 µM | [54] > 100 µM
> 100 µM: [10]
